PubChem BioAssay (NCI)
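Compound exposure: 48 hours, 5 concentrations, 96-well plates. GI50 is the concentration that inhibits growth by half. TGI is the concentration that stops growth completely.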

Legend:
Assay in all cases: DTP human tumour cell line panel, 48 h
[1] = test system: K-562 leukemia
[2] = test system: SN12C renal
[3] = test system: SK-MEL-5 melanoma
[4] = test system: A498 renal
[5] = test system: HL-60(TB) leukemia
[6] = test system: UACC-62 melanoma
[7] = test system: NCI/ADR-RES ovarian
[8] = test system: HOP-92 NSCLC
[9] = test system: SF-268 CNS
[10] = test system: OVCAR-4 ovarian

| SMILES | TGI [1] [µM] | TGI [2] [µM] | TGI [3] [µM] | TGI [4] [µM] | TGI [5] [µM] | TGI [6] [µM] | TGI [7] [µM] | TGI [8] [µM] | TGI [9] [µM] | TGI [10] [µM] | GI50 [1] [µM] | GI50 [2] [µM] | GI50 [3] [µM] | GI50 [4] [µM] | GI50 [5] [µM] | GI50 [6] [µM] | GI50 [7] [µM] | GI50 [8] [µM] | GI50 [9] [µM] | GI50 [10] [µM] |
| --- | --- | --- | --- | --- | --- | --- | --- | --- | --- | --- | --- | --- | --- | --- | --- | --- | --- | --- | --- | --- |
| O=C(/C=C/c1ccccc1)c1cc(Br)ccc1O | 43.1 | 29.7 | 34.6 | 26.8 | 25.7 | 27.4 | 34.9 | 18.3 | 34 | 30.3 |  |  |  |  |  |  |  |  |  |  |
| Nc1nc2c(c3ncncc13)C(c1cccc(C(F)(F)F)c1)Cc1ncncc1-2 (stereo not given) | 22.8 | 49.2 | 17.7 | 8.75 | 14.1 | 17.6 | > 100 | 57.9 | 37.7 | > 100 | 3.74 | 7.66 | 4.88 | 3.28 | 3.44 | 3.86 | 3.48 | 6.92 | 5.94 | 10.8 |
| COc1cc(C2CC(c3ccc4c(c3)OCO4)=NN2C=O)cc(OC)c1OC (stereo not given) | > 100 | > 100 | 8.11 |  |  | > 100 | > 20.1 | > 100 | > 100 | > 100 | 0.621 | 13.6 | 2.39 | 0.828 | 0.935 | 2.21 | 1.13 |  | 6.88 | 6.86 |
| COc1cccc2c1c(C(=O)C(=O)Nc1cc(C)no1)cn2Cc1ccc(F)cc1 | > 36.5 | > 81.8 | 25.6 | > 67.5 | > 20.2 | > 100 | > 24 | > 66 | > 100 | > 100 | 1.91 | 8.28 | 3.08 | 19.6 | 2.2 | 3.29 | 3.78 | 14.2 | 8.73 | 24 |
| COc1ccc2c(c1)cn1c3ccc(O)cc3nc(N)c21 | 2.46 | 19.1 | 3.95 | 17.4 | 31.3 | 20 | 3.33 | > 37 | 7.24 | 15.7 | 0.0735 | 0.342 | 0.0762 | 0.498 | 0.765 | 0.09 | 0.2 | 1.06 | 0.238 | 1.57 |
| CCOC(=O)c1cc(NS(=O)(=O)c2ccccc2)cc(C(=O)OCC)c1 | > 100 | > 100 | > 100 | > 100 | > 100 | > 100 | > 100 | > 100 | > 100 | > 100 | > 100 | > 100 | > 100 | > 100 | > 100 | > 100 | > 100 | > 100 | > 100 | > 100 |
| COc1ccc(/C=C(/C#N)C(N)=O)cc1OC | > 100 | > 100 | > 100 | > 100 | > 100 | > 100 | > 100 | > 100 | > 100 | > 100 |  |  |  |  |  |  |  |  |  |  |
| COc1ccc(-c2c3c(N)nc(-c4ccncc4)nc3nc3c2c(C)nn3-c2ccccc2)cc1 | > 100 | > 100 | > 100 | > 100 | > 100 | 51.9 | > 100 | > 100 | > 100 | 30.8 | 3.13 | 44.4 | 6.79 | 12.3 | > 100 | 4.87 | 19.7 | 36.2 | 7.93 | 3.41 |
| COc1cccc(-n2ncc3c(N/N=C/c4ccc(C(=O)NCCN(C)C)cc4)ncnc32)c1 | 6.65 | 6.99 | 6.09 | > 25 | 10.5 | 7.39 | 11.2 | > 25 | 8.46 | 7.56 | 0.128 | 3.01 | 2.95 | > 13.6 | 5.58 | 3.72 | 5.25 | > 25 | 4.11 | 3.16 |
| CN(C)CCCNC(CC#N)CCC#N (stereo not given) | > 10 | > 10 | > 10 | > 10 | > 10 | > 10 | > 10 | > 10 | > 10 | > 10 |  |  |  |  |  |  |  |  |  |  |
| O=c1cc(-c2ccccc2)[nH]c2ccccc12 | > 100 | > 100 | 19.1 | 33 | > 100 | > 100 |  | > 100 | > 100 | > 100 |  | 1.73 | 0.387 | 0.428 | 0.52 | 0.519 | 0.483 | 0.571 | 3.18 | 0.949 |
| COc1ccc(-c2nn3c(-c4cc(F)c(Cl)cc4Cl)nnc3s2)cc1 | 44.7 | > 100 | 44.7 | > 100 | 43.9 | > 100 | 99.7 | 77.9 | > 100 | 87.4 | 5.13 | 43.4 | 17.6 | 43.4 | 15.6 | 21.8 | 21.2 | 24.2 | 19.7 | 23.5 |
